Measured values: patent publication US4920129A, “Anti-ulcerative imidazopyridine compounds” (Fujisawa Pharmaceutical Company, Ltd., priority 1987, dated 1990)

Key:
[1] = tested on: stress ulcer; test: Inhibition on stress ulcer (water-bath immobilization); type: in vivo, Sprague-Dawley rats; settings: 32 mg/kg, oral, just before immobilization; 7 hours; rats
Protocol: INHIBITION ON STRESS ULCER
Five Sprague-Dawley rats weighing about 200 g were used per group. Each animal was immobilized in a small cage and put in a water bath allowing to respire. The temperature of the water bath kept at 22° C. The test compound was administered orally just before the immobilization. Seven hours later, the animals were sacrificed and their stomachs were removed. The stomach was then fixed with 2% formalin. The area of ulcers was measured for each animal. The mean area (mm^2) in the medicated animals was compared with that in the control animals.

[2] = tested on: gastrin-stimulated acid secretion; test: Effect on gastrin-stimulated acid secretion in Heidenhain pouch dogs; type: in vivo; settings: 3.2 mg/kg, oral, tetragastrin 10 μg/kg/hr infusion, gastric juice collected 3 hr after drug
Protocol: EFFECT ON GASTRIN-STIMULATED ACID SECRETION IN HEIDENHAIN POUCH DOGS
Dogs equipped with Heidenhain pouches were placed on tables and restrained minimally in pavlov slings. Gastrin(tetragastrin) in 0.9% saline was continuously infused through the cephalic vein at a dose of 10 μg/kg/hr over a 5- to 6-hr period in a volume of 0.1 ml/kg/min. After acid secretion had reached a plateau (usually within 2 hr), drug was given orally in a volume of 1 ml/kg. Gastric juice was collected at 15 min intervals for 1 hr before and for 3 hr after drug administration. The volume of each sample was determined, and an aliquot was titrated to pH 7.0 with 0.1M NaOH. Acid output was expressed as μEq H^+ /15 min. The effect of drug was described as percent drug-induced change in acid secretion.

## C#CCc1c(C)nc2c(NCc3c(C)cccc3NC(=O)OC)cccn12 [(1), 8-(2-Methyl-6-methoxycarbonylaminobenzylamino)-3-(2-propynyl)-2-methylimidazo[1,2-a]pyridine]
[1]
  Inhibition % (area of ulcers): 100%
[2]
  Maximum inhibition % (acid secretion): 100%
